ChEMBL document CHEMBL4024745, “Causes and Significance of Increased Compound Potency in Cellular or Physiological Contexts” (J Med Chem, 2018)

Assays:
[1] = Drug metabolism in human MDA231 cells assessed as polyglutamylation of compound at 2 uM after 24 hrs by liquid scintillation counting method; assay type: ADME, cell-based; conditions: MDA231 (MDA-MB-231) cells, read-out: Drug metabolism
[2] = Drug metabolism in human MCF7 cells assessed as polyglutamylation of compound at 2 uM after 24 hrs by liquid scintillation counting method; assay type: ADME, cell-based; conditions: read-out: Drug metabolism
[3] = Drug metabolism in human ZR-75B cells assessed as polyglutamylation of compound at 2 uM after 24 hrs by liquid scintillation counting method; assay type: ADME, cell-based; conditions: read-out: Drug metabolism
Bacterial 70S ribosome = experiment: Binding affinity to Escherichia coli A19 70S ribosome after 30 mins by scintillation counting method
[4] = Binding affinity to Escherichia coli A19 50S ribosome after 30 mins by scintillation counting method
[5] = Inhibition of coupled transcription-translation in Escherichia coli UC6782 […] using ortho-nitrophenyl-beta-galactoside as substrate after 30 mins by spectrophotometry
[6] = Binding affinity to Escherichia coli MRE600 50S ribosome after 10 mins by radioligand binding assay
[7] = Binding affinity to Escherichia coli MRE600 50S ribosome after 80 hrs by equilibrium dialysis method

Compound `CN(Cc1cnc2nc(N)nc(N)c2n1)c1ccc(C(=O)N[C@@H](CCC(=O)O)C(=O)O)cc1` [METHOTREXATE] has a metabolised at 24 h, 2 µM [1] of 32%, a metabolised at 24 h, 2 µM [2] of 55.4% and a metabolised at 24 h, 2 µM [3] of 87.6%.

For `COC[C@H]1O[C@@H](O[C@@H]2OC[C@@H]3O[C@@]4(OC[C@@H](OC(=O)c5c(C)cc(O)cc5O)[C@@H]5OCO[C@H]54)O[C@H]3[C@H]2O)[C@@H](OC)[C@@H](O)[C@@H]1O[C@@H]1O[C@H](C)[C@H](OC)[C@H](O[C@@H]2O[C@H](C)[C@H]3O[C@]4(C[C@@H](O)[C@H](O[C@H]5C[C@@H](O[C@H]6C[C@](C)([N+](=O)[O-])[C@@H](OC)[C@H](C)O6)[C@H](OC(=O)c6c(C)c(Cl)c(O)c(Cl)c6OC)[C@@H](C)O5)[C@@H](C)O4)O[C@]3(C)[C@@H]2O)[C@H]1O` [EVERNIMICIN], the Kd (Bacterial 70S ribosome) was 84 nM and the Kd [4] was 160 nM.

With `CC(=O)NC[C@H]1CN(c2ccc(N3CCN(C(=O)CO)CC3)c(F)c2)C(=O)O1` [EPEREZOLID] the IC50 [5] was 1800 nM and the IC50 [6] was 20000 nM.

For `CCC[C@@H]1C[C@@H](C(=O)N[C@@H]([C@H]2O[C@H](SC)[C@H](O)[C@@H](O)[C@H]2O)[C@@H](C)O)N([14CH3])C1`, the Kd [7] was 34000 nM.
